Reference: ChEMBL document CHEMBL1201862, “PubChem BioAssay data set” (2004)
Active and inactive are the calls of the source. Cut-off read from the data, not from the text of the source: actives have a measured IC50 and inactives only a lower limit.

Target: Envelope glycoprotein gp160 (Human immunodeficiency virus 1, UniProt Q6QLK5)
Assay: cell-free HIV fusion peptide-binding blockers – biochemical, uHTS, fluorescence dequenching, […] (AID 1986)

Sequence of Envelope glycoprotein gp160 (Q6QLK5 whole entry, the tested form may be a part): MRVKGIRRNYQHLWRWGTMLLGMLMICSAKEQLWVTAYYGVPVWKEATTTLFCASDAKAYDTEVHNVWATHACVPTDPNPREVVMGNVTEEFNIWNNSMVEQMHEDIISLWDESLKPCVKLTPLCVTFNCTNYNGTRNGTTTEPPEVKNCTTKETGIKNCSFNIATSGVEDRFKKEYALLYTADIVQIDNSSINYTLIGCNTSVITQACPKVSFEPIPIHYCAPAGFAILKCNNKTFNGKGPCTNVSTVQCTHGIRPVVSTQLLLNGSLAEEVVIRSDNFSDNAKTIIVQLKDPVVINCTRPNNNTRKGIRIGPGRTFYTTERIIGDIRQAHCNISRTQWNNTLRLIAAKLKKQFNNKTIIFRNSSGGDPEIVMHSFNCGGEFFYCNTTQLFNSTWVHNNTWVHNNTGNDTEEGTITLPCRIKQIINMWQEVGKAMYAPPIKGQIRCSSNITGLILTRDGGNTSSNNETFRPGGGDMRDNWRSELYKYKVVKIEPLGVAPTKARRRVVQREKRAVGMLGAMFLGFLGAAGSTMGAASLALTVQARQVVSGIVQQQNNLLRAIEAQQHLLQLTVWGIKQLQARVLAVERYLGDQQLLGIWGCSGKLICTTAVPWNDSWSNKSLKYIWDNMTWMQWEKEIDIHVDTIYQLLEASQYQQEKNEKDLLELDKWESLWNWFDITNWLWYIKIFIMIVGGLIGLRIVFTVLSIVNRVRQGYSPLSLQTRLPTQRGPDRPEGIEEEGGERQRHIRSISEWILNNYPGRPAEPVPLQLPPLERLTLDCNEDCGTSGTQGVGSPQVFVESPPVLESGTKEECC

**Q.** O=C(NC(=S)Nc1ccccc1C(=O)O)c1ccc(-c2ccc(Br)cc2)o1 was tested. Which IC50 did it give?
**A.** 18.5 µM (active)

**Q.** For O=C1NN(c2ccc(Cl)c(Cl)c2)C(=O)/C1=C/c1cccc(OC(=O)c2cccs2)c1, which IC50 is on record?
**A.** 11.8 µM (active)

**Q.** For O=C(O)c1ccc(NS(=O)(=O)c2ccc3c(c2)C2C=CCC2C(c2ccccc2F)N3)cc1 (centres undefined), which IC50 is on record?
**A.** 17.7 µM (active)

**Q.** For O=C(CCCN1C(=O)/C(=C/c2cccs2)SC1=S)Nc1ccc(O)c(C(=O)O)c1, which IC50 is on record?
**A.** 24.1 µM (active)
